From patent US20260102484A1, “ADJUVANTS FOR ENHANCING THE IMMUNE RESPONSE” (priority 2022, published 2026)

Tests used:
[1] = test system: cytokine response to RBD Peptide #9 (IL6, IFNg, TNF, IL17, IL 10); design: species or system Mice; conditions: mouse, in vivo
[2] = test system: splenic T cells; test: Recall response of splenic T cells to peptide #5-palmitic acid, CTFR proliferation dye and FACS; type: in vivo, Mice; conditions: immunized subcutaneously with peptide #5-palmitic acid CFA + 10 ug; 14 days later; FIG. 7
Description: Mice were now immunized with peptide 5 and T cells analyzed for proliferation and by FACS analysis. (FIG. 7) Mice were immunized subcutaneously with peptide #5-palmitic acid CFA mixture with and without 10 ug of 1,4-DPCA. 14 days later, splenic T cells were isolated and co-cultured with irradiated feeders in a ratio of 400k:100k to assess recall responses to peptide #5-palmitic acid. T cells from unimmunized mice were used as control. Only T cells were stained with CTFR proliferation dye in order to ensure detection of specific T cell responses.
In upper FIG. 7 is the FACS flow cytometry plot, where the labelled cells are T cells. […] Below this, is the analyzed proliferation data, where the yellow line is immunized+10 ug of DPCA was given to mice, the grey line is immunized only, the orange line is control, unimmunized but stimulated in culture, and the blue line is control, unstimulated in culture.

[3] = test system: antigen-specific (RBD peptide #9) Proliferative T cell response; design: species or system Mice; conditions: mouse, in vivo
[4] = test system: Naïve, central memory, and effector T cells (CD4 and CD8); test: Numbers of naive, central memory and effector memory T cells from lymph nodes and spleen; type: in vivo; conditions: peptide 9 and 10 ug or 25 ug of DPCA, FIG. 6
Description: Next, three populations of T cells (Naïve, central memory, and effector T cells) from lymph nodes and spleens were treated with peptide 9 and 10 ug of DPCA or 25 ug of DPCA. An untreated control group and a control group treated with PBS were also tested.

[5] = test system: myeloid (GR1+CD11b+) cells and lymphoid (CD8+) cells; test: FACS analysis of myeloid and lymphoid cells at higher DPCA doses; type: in vivo, mice
Description: To explore what is happening at higher DPCA doses and why they may be inhibitory, we tested the effects of different concentrations of DPCA on myeloid (GR1+CD11b+) cells and lymphoid (CD8+) cells. […] Also, the number of GR1+CD11b+myeloid cells is much higher. Within this population of myeloid cells are cells that can suppress T cells.
Additionally, cells were immunized with 50 ug of DPCA and compared to an untreated control. The number of cell in each was determined by FACS analysis. […] (See upper panels showing scatter plots with an increased number of cells in treated cells). An analysis of myeloid cell markers GR1 and CD11b was determined in the control and DPCA treated cells. […] (See lower panels)

O=C(O)c1c[nH]c2c(ccc3cccnc32)c1=O [1,4-DPCA, 1,4-dihydrophenonthrolin-4-one-3-carboxylic acid]
IFNg response [1]: most dramatically affected | cytokine response (IL6, IFNg, TNF, IL17, and IL 10) [1]: dose-dependent | T cell proliferation (FACS flow cytometry plot) [2]: increased proliferation | antigen-specific (RBD peptide #9) Proliferative T cell response [3]: enhances | numbers of memory cells (CD4 and CD8) [4]: increased numbers | numbers of naïve cells (CD4 and CD8) [4]: lower numbers | number of large cells (FACS scatter plots) ([5]; 50 ug of DPCA vs untreated control, FIG. 5): increase number of large cells | myeloid cell markers GR1 and CD11b ([5]; DPCA treated vs untreated control, FIG. 5 lower panels): large population of myeloid cells | relationship between lymphoid and myeloid cells ([5]; higher DPCA dosage, FIG. 4): Inverse relationship | number of CD8+T cells ([5]; higher DPCA doses, FIG. 4): reduced | number of GR1+CD11b+myeloid cells ([5]; higher DPCA doses, FIG. 4): much higher
